Structures can show the parent of a compound that is named as a salt.
System: apoB secretion from HepG2 cells
Experiment: ApoB secretion from HepG2 cells (ELISA of culture media)
Format: cell-based, human
Description: (§1) HepG2 cells were treated with compound A at the indicated doses for 16 hours. The concentration in the cell culture media of apoB, apoAI and HSA after the incubation period was measured with the appropriate ELISA assay and normalized to total cell protein. The data shown are expressed as a percentage of the control (DMSO only).
as §1, with “compound B” for “compound A”
The human hepatoblastoma cell line, HepG2, was obtained from the American Type Culture Collection (Rockville, Md.; ATCC accession no. 8065). […]
Experiments to measure the effects of compounds A and B on protein secretion were carried out in 48-well plates. […] Before commencement of drug treatment, culture medium was removed, the cells washed once with PBS and 1 mL of fresh medium was added quantitatively. […] The cells were homogenized by trituration with a 1 mL micropipettor, and protein was measured using the Coomassie reagent (Pierce Chemical Co, Rockford, Ill.) as described by the manufacturer. […]

SMILES | IC50 (Homo sapiens, 16-hour incubation, 0.156 to 20 μM, read-out: IC50 for inhibition of apoB secretion) [µM] | secretion of lipoproteins that contain apoB (result in words)
O=C1c2ccccc2CN1C1CCN(CCC(c2ccccc2)c2ccccc2)CC1 [compound A, 2-[1-(3,3-diphenylpropyl)-4-piperdinyl]-2,3-dihydro-3-oxo-1H-isoindole hydrochloride] | 5 | –
COc1ccccc1N1CCN(CC2CC(=O)c3ccc(F)cc3C2)CC1 (centres unmarked) [compound B, 1-[3-(6-fluoro-1-tetralanyl)methyl]-4-O-methoxyphenyl piperazine] | – | inhibited

Reference: patent US6492365B1, “Microsomal triglyceride transfer protein” (Bristol-Myers Squibb Company, priority 1992, dated 2002)
